Experimental data taken from patent US20250255992A1, “COXIB-DERIVED CONJUGATE COMPOUNDS AND METHODS OF USE THEREOF” (Reiley Pharmaceuticals, Inc., priority 2020, published 2025).

What was measured:
human COX-2 = human COX-2 (Homo sapiens (Human), UniProt P35354); format: biochemical; conditions: read-out: COX-2 IC50 (μM) enzyme
COX-2 = COX-2 (Mus musculus (Mouse), UniProt Q05769); test: Cell-based COX-2 assay (PGE2 in LPS/IFN-g stimulated RAW264.7 cells); conditions: RAW264.7 murine macrophages, LPS + IFN-g, PGE2 readout
Method: Cell culture: RAW264.7 murine macrophages are obtained from the Cell Bank of Shanghai Institute of Biochemistry and Cell Biology, Chinese Academy of Sciences (Shanghai, China) and cultured in Dulbecco's modified Eagle's medium containing 100 U/ml penicillin and 100 µg/ml streptomycin at 37° C. in 5% CO2.
The cells are pre-incubated for 30 min with various doses of compounds and stimulated for 7 h with […] LPS and 10 U/ml IFN-g. The cell culture supernatants are collected immediately following treatment and centrifuged at 1,000 rpm for 5 min to remove the particulate matter. PGE2 is determined using a Prostaglandin E2 assay kit (catalog no. 62P2APEB; Cisbio Co.). […] Replace the standard by 10 μL of diluent and PGE2-d2 by 5 μL of reconstitution buffer, Cal0 (for positive control), replace the standard by 10 µL of diluent. Incubate at 4° C. overnight.
(§1) Dose-response curves are generated using XLFit (IDBS, Surrey, UK) or Prism (GraphPad Software, La Jolla, CA, US) to calculate IC50 values for each compound tested.

ovine COX-1 = ovine COX-1 (Ovis aries (Sheep), UniProt P05979); test: COX-1/-2 enzyme assay (EIA kit), COX-1; format: biochemical; conditions: ovine COX-1 enzyme immunoassay
Method: COX-1/-2 enzyme assay: The ability of compounds to inhibit ovine COX-1 and human COX-2 is determined using a commercially available enzyme immunoassay (EIA) kit (catalog no. 701090 (COX-1); 701080 (COX-2) Cayman Chemical Co., Ann Arbor, MI, USA) according to the manufacturer's protocol. COX catalyzes the first step in the biosynthesis of AA to PGH2. PGF2α, produced from PGH2 by reduction with stannous chloride, was measured by EIA (ACE™ competitive EIA, Cayman Chemical, Ann Arbor, MI, USA). Briefly, to a series of supplied reaction buffer solutions [960 μl 0.1 M Tris-HCl (pH 8.0) containing 5 mM EDTA and 2 mM phenol] with either COX-1 or COX-2 (10 μl) enzyme in the presence of heme (10 μl), 10 μl of various concentrations of test drug solutions are added. These solutions are incubated for 15 min at 37° C. and subsequently 10 μl AA solution (100 μM) is added. The COX reaction is stopped by the addition of 30 μl stannous chloride after 2 min, mixed immediately, supernatants are 2000-fold diluted. The produced PGF2α is measured by EIA. This assay is based on the competition between PGs and a PG-acetylcholinesterase conjugate (PG tracer) for a limited amount of PG antiserum. The amount of PG tracer that is able to bind to the PG antiserum is inversely proportional to the concentration of PGs in the wells since the concentration of the PG tracer is held at a constant while the concentration of PGs varies. The specific antiserum-PG complex binds to a mouse anti-rabbit IgG that had been previously attached to the well. The plate is washed to remove any unbound reagents and 200 μl Ellman's reagent (5,5′-dithiobis-(2-nitrobenzoic acid), which contains the substrate to acetylcholine esterase, is added to the well. The product of this enzymatic reaction generates a distinct yellow color that absorbs at 406 nm. The intensity of this color, determined by spectrophotometry, is proportional to the amount of PG tracer bound to the well, which is inversely proportional to the amount of PGs present in the well during the incubation. Percent inhibition is calculated by the comparison of the compounds treated to the various control incubations.
as §1

Sequence of COX-2 (Q05769 18-604): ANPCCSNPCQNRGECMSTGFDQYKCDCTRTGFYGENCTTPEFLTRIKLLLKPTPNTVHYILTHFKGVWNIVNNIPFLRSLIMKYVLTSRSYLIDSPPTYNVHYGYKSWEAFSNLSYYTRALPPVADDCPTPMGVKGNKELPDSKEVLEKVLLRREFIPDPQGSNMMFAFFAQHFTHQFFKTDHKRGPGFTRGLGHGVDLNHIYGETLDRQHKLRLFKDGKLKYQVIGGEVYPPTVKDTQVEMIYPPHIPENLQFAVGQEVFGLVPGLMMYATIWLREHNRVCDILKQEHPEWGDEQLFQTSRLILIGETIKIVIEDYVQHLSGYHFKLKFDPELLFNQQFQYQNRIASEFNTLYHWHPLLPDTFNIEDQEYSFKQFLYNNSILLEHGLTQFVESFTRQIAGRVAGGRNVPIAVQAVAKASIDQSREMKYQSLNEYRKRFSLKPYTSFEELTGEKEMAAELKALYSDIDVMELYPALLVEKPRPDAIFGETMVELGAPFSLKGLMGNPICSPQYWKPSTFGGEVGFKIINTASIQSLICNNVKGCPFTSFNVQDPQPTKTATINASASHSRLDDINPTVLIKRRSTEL
Sequence of human COX-2 (P35354 18-604 limits assumed): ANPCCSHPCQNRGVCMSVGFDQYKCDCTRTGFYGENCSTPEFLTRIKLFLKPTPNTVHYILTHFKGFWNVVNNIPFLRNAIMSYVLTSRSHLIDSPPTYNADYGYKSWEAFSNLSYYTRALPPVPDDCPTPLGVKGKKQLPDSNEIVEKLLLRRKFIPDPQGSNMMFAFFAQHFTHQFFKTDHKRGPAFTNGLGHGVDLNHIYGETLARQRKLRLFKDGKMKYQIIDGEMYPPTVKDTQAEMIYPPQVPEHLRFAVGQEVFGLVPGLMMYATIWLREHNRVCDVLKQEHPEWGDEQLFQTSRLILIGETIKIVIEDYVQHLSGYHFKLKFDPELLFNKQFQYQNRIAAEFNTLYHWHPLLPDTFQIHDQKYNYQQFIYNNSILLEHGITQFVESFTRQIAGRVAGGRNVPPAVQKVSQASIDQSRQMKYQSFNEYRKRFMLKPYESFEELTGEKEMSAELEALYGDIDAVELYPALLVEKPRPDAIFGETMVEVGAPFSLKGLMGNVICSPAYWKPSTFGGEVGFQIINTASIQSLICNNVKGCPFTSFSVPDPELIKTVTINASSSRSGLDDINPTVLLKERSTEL
Sequence of ovine COX-1 (P05979 25-600 limits assumed): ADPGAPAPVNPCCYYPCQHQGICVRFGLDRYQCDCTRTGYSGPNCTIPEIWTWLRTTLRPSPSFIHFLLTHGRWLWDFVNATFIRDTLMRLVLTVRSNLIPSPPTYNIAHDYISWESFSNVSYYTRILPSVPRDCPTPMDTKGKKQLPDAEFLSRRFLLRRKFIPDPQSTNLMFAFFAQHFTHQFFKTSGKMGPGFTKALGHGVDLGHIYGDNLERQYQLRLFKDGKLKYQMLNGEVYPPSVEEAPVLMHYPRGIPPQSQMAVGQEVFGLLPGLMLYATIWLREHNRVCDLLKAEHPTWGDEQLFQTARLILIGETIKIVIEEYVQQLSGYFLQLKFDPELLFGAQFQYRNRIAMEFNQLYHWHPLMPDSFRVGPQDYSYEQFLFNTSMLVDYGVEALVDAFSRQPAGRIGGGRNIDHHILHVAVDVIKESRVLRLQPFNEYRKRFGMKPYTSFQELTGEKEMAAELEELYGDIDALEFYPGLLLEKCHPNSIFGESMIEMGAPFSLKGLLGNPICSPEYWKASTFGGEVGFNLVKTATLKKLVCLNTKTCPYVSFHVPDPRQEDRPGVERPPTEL

Compound	IC50 (human COX-2)	IC50 (COX-2)	IC50 (ovine COX-1)
NS(=O)(=O)c1ccc(-n2nc(CCCCCN3CC[S][Re]4(=[O])[S]CC[N]4CC3)cc2-c2ccc(F)cc2)cc1 (stereo not drawn) [Compound 2]	1.33 µM	0.66 µM	
NS(=O)(=O)c1ccc(-n2nc(CCCCCCCN3CC[S][Re]4(=[O])[S]CC[N]4CC3)cc2-c2ccc(F)cc2)cc1 (stereo not drawn) [Compound 3]	> 10 µM		
NS(=O)(=O)c1ccc(-n2nc(CCCCCCCCN3CC[S][Re]4(=[O])[S]CC[N]4CC3)cc2-c2ccc(F)cc2)cc1 (stereo not drawn) [Compound 4]	0.59 µM	0.32 µM	
NS(=O)(=O)c1ccc(-n2nc(CCCCCCCCC[N+]34CC[S][Re]35(=[O])[S]CC[N]5CC4)cc2-c2ccc(F)cc2)cc1 (stereo not drawn) [Compound 5]	0.13 µM	0.15 µM	> 10 µM
NS(=O)(=O)c1ccc(-n2nc(CCCCCCN3CC[S][Re]4(=[O])[S]CC[N]4CC3)cc2-c2ccc(Cl)cc2)cc1 (stereo not drawn) [Compound 6]	3.31 µM		
NS(=O)(=O)c1ccc(-n2nc(CCCCCCCN3CC[S][Re]4(=[O])[S]CC[N]4CC3)cc2-c2ccc(Cl)cc2)cc1 (stereo not drawn) [Compound 7]	> 10 µM		
NS(=O)(=O)c1ccc(-n2nc(CCCCCCCCC[N+]34CC[S][Re]35(=[O])[S]CC[N]5CC4)cc2-c2ccc(Cl)cc2)cc1 (stereo not drawn) [Compound 8]	0.19 µM	0.2 µM	
NS(=O)(=O)c1ccc(-n2nc(CCCCCCCCN3CC[S][Re]4(=[O])[S]CC[N]4CC3)cc2-c2ccc(Cl)cc2)cc1 (stereo not drawn) [Compound 9]	0.11 µM	0.19 µM	
COc1ccc(-c2cc(CCCCCCCCC[N+]34CC[S][Re]35(=[O])[S]CC[N]5CC4)nn2-c2ccc(S(N)(=O)=O)cc2)cc1 (stereo not drawn) [Compound 10]	0.06 µM	0.16 µM	> 10 µM
Cc1ccc(-c2cc(CCCCCCCCCN3CC[S][Re]4(=[O])[S]CC[N]4CC3)nn2-c2ccc(S(N)(=O)=O)cc2)cc1 (stereo not drawn) [Compound 11]	4.49 µM	0.2 µM	
NS(=O)(=O)c1ccc(-n2nc(COCCCCCC[N+]34CC[S][Re]35(=[O])[S]CC[N]5CC4)cc2-c2ccc(F)cc2)cc1 (stereo not drawn) [Compound 14]	2.36 µM		
NS(=O)(=O)c1ccc(-n2nc(COCCCC[N+]34CC[S][Re]35(=[O])[S]CC[N]5CC4)cc2-c2ccc(F)cc2)cc1 (stereo not drawn) [Compound 15]	2.37 µM		
NS(=O)(=O)c1ccc(-n2nc(COCCCCCCC[N+]34CC[S][Re]35(=[O])[S]CC[N]5CC4)cc2-c2ccc(F)cc2)cc1 (stereo not drawn) [Compound 16]	0.31 µM	0.21 µM	> 10 µM
NS(=O)(=O)c1ccc(-n2nc(COCCCOCCCN3CC[S][Re]4(=[O])[S]CC[N]4CC3)cc2-c2ccc(F)cc2)cc1 (stereo not drawn) [Compound 17]	4.15 µM		
NS(=O)(=O)c1ccc(-n2nc(COCCCCCCN3CC[S][Re]4(=[O])[S]CC[N]4CC3)cc2-c2ccc(Cl)cc2)cc1 (stereo not drawn) [Compound 18]	> 10 µM		
COc1ccc(-c2cc(COCCCCCCN3CC[S][Re]4(=[O])[S]CC[N]4CC3)nn2-c2ccc(S(N)(=O)=O)cc2)cc1 (stereo not drawn) [Compound 19]	4.51 µM		
COc1ccc(-c2cc(COCCCCCCCN3CC[S][Re]4(=[O])[S]CC[N]4CC3)nn2-c2ccc(S(N)(=O)=O)cc2)cc1 (stereo not drawn) [Compound 20]	0.54 µM	0.22 µM	
Cc1ccc(-c2cc(COCCCCCCC[N+]34CC[S][Re]35(=[O])[S]CC[N]5CC4)nn2-c2ccc(S(N)(=O)=O)cc2)cc1 (stereo not drawn) [Compound 21]	2.48 µM	0.15 µM	
NS(=O)(=O)c1ccc(-c2c(-c3ccccc3)noc2CCCCCC[N+]23CC[S][Re]24(=[O])[S]CC[N]4CC3)cc1 (stereo not drawn) [Compound 26]	0.16 µM	0.23 µM	
NS(=O)(=O)c1ccc(-c2c(-c3ccccc3)noc2CCCCCCC[N+]23CC[S][Re]24(=[O])[S]CC[N]4CC3)cc1 (stereo not drawn) [Compound 27]	0.07 µM	0.07 µM	> 10 µM
NS(=O)(=O)c1ccc(-c2c(-c3ccccc3)noc2CCCCCCCCC[N+]23CC[S][Re]24(=[O])[S]CC[N]4CC3)cc1 (stereo not drawn) [Compound 28]	0.019 µM	0.025 µM	> 10 µM
